Measurements published in the supplement of paper PMC10307832.

Legend:
Experiment in all cases: relative viability (nuclei count vs DMSO), 5 days (fraction); higher = more cells survive
AZ3146 + Crizotinib = compound: CN1CCC(CC1)OC2=CC(=C(C=C2)NC3=NC=C4C(=N3)N(C(=O)N4C)C5CCCC5)OC [AZ3146] + C[C@@H](Oc1cc(-c2cnn(C3CCNCC3)c2)cnc1N)c1c(Cl)ccc(F)c1Cl [Crizotinib] (partner 1 µM)
In short: (§1)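 Relative viability divides the nuclei count in treated wells by that in vehicle wells. Lung cancer cell lines were seeded in 1536-well plates, dosed by pin tool the next day, and fixed and stained after 5 days in one step with final 0.05% Triton X-100, 1% formaldehyde and 1 ug/ml Hoechst. Dosing was a single drug or a fixed anchor-drug dose plus five library-drug doses (not always all listed) in √10 steps, and values are medians of duplicate plates imaged at 4×.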

AZ3146 + Olaparib = compound: CN1CCC(CC1)OC2=CC(=C(C=C2)NC3=NC=C4C(=N3)N(C(=O)N4C)C5CCCC5)OC [AZ3146] + O=C(c1cc(Cc2n[nH]c(=O)c3ccccc23)ccc1F)N1CCN(C(=O)C2CC2)CC1 [Olaparib] (partner 8 µM)
In short: as §1

AZ3146 + Pemetrexed = compound: CN1CCC(CC1)OC2=CC(=C(C=C2)NC3=NC=C4C(=N3)N(C(=O)N4C)C5CCCC5)OC [AZ3146] + Nc1nc2[nH]cc(CCc3ccc(C(=O)N[C@@H](CCC(=O)O)C(=O)O)cc3)c2c(=O)[nH]1 [Pemetrexed] (partner 0.2 µM)
In short: as §1

GSK-J4 + Linsitinib = compound: CCOC(=O)CCNc1cc(N2CCc3ccccc3CC2)nc(-c2ccccn2)n1 [GSK-J4] + C[C@]1(O)C[C@@H](c2nc(-c3ccc4ccc(-c5ccccc5)nc4c3)c3c(N)nccn32)C1 [Linsitinib] (partner 1 µM)
In short: as §1

Row | Cell Line | relative viability (AZ3146 + Crizotinib; first compound 0.08 µM) | relative viability (AZ3146 + Crizotinib; first compound 0.253 µM) | relative viability (AZ3146 + Crizotinib; first compound 0.8 µM) | relative viability (AZ3146 + Crizotinib; first compound 2.53 µM) | relative viability (AZ3146 + Crizotinib; first compound 8 µM) | relative viability (AZ3146 + Olaparib; first compound 0.08 µM) | relative viability (AZ3146 + Olaparib; first compound 0.253 µM) | relative viability (AZ3146 + Olaparib; first compound 0.8 µM) | relative viability (AZ3146 + Olaparib; first compound 2.53 µM) | relative viability (AZ3146 + Olaparib; first compound 8 µM) | relative viability (AZ3146 + Pemetrexed; first compound 0.08 µM) | relative viability (AZ3146 + Pemetrexed; first compound 0.253 µM) | relative viability (AZ3146 + Pemetrexed; first compound 0.8 µM) | relative viability (AZ3146 + Pemetrexed; first compound 2.53 µM) | relative viability (AZ3146 + Pemetrexed; first compound 8 µM) | relative viability (GSK-J4 + Linsitinib; first compound 0.5 µM) | relative viability (GSK-J4 + Linsitinib; first compound 5 µM) | relative viability (GSK-J4 + Linsitinib; first compound 15.81 µM) | relative viability (GSK-J4 + Linsitinib; first compound 50 µM) | relative viability (GSK-J4 + Linsitinib; first compound 1.581 µM)
1 | NCI-H1666 | 1.08 | 1.01 | 1.08 | 0.934 | 0.778 | 0.719 | 0.79 | 0.741 | 0.75 | 0.741 | 0.771 | 0.825 | 0.83 | 0.901 | 0.788 | 0.873 | 0.888 | 0.779 | 0.764 | –
2 | NCI-H2085 | 0.837 | 0.998 | 0.933 | 0.824 | 0.658 | 0.792 | 0.749 | 0.749 | 0.764 | 0.711 | 0.923 | 0.824 | 0.869 | 0.887 | 0.705 | 0.801 | 0.926 | 0.874 | 0.771 | 0.812
3 | LXF-289 | 0.848 | 0.886 | 0.795 | 0.781 | 0.444 | 1.13 | 0.989 | 1.07 | 1.18 | 1.06 | 0.953 | 0.85 | 0.912 | 0.924 | 0.799 | 0.973 | 0.956 | 0.915 | 0.893 | 0.912
4 | NCI-H322M | 0.683 | 0.876 | 0.9 | 0.763 | 0.6 | 0.839 | 0.839 | 0.644 | 0.813 | 0.729 | 0.59 | 0.585 | 0.609 | 0.574 | 0.642 | 0.858 | 0.955 | 0.828 | 0.825 | 0.929
5 | LU99A | 0.502 | 0.584 | 0.555 | 0.555 | 0.452 | – | 0.26 | 0.24 | 0.271 | 0.257 | – | 0.188 | 0.181 | 0.165 | 0.186 | 0.515 | 0.565 | 0.404 | 0.457 | 0.53
6 | NCI-H650 | 0.571 | 0.721 | 0.827 | 0.781 | 0.542 | 0.271 | 0.361 | 0.385 | 0.46 | 0.413 | 0.871 | 0.747 | 0.78 | 0.949 | 0.948 | 0.733 | 0.537 | 0.723 | 0.592 | 0.672
7 | PC-14 | 0.898 | 0.98 | 0.975 | 1 | 0.828 | 0.286 | 0.319 | 0.259 | 0.225 | 0.0944 | 0.138 | 0.131 | 0.142 | 0.119 | 0.0971 | 0.909 | 0.86 | 0.915 | 1.05 | 0.918
8 | HARA | 0.983 | 1.03 | 1.03 | 0.72 | 0.206 | 0.618 | 0.926 | 0.818 | 0.924 | 0.841 | 0.22 | 0.257 | 0.245 | 0.217 | 0.231 | 0.891 | – | 0.797 | 0.699 | 0.608
